Where two headings read alike, the source gives them in different places.
Assays:
CDK9 [1] = molecular target: T1, CDK9 (Homo sapiens, UniProt P50750); set-up: purchased BPS Biosciences (San Diego, CA); details: compound 2 of Figure 1; ref [40]; cited from earlier work
three cancer cell lines = details: average of three cancer cell lines, ref [40], cited from earlier work
CDK5 = details: new-generation CDK9 inhibitors; ref [21]; cited from earlier work
CDK2 = details: new-generation CDK9 inhibitors; ref [21] (Atuveciclib), [32] (BAY-1251152); cited from earlier work
CDK7 = details: new-generation CDK9 inhibitors; ref [21]; cited from earlier work
[2] = tested on: six breast cancer cell lines; details: read-out: Cytotoxicity IC50; average of six breast cancer cell lines; ref [38],[39]; cited from earlier work
FHC normal cells = assay: MTT assay against FHC normal cells; format: cell-based; details: for SI (Selectivity Index) HCT116: FHC versus HCT116; for SI (Selectivity Index) K652: FHC versus K652; for SI (Selectivity Index) MCF7: FHC versus MCF7; for IC50: read-out: FHC IC50
Experimental: (§1) The MTT assay was used to monitor the in vitro cytotoxicity of our compounds. […] Then, the cells were incubated with 10% v/v reconstituted MTT at 37 °C for 3 h.

K652 cancer cells = assay: MTT cytotoxicity assay, K652; format: cell-based; details: K652, 48 h, read-out: IC50 K652
Experimental: (§2) The cytotoxicity effect of the new compounds was assessed in an MTT assay against chronic myelogenous leukemia (K652), colorectal (HCT116), and breast (MCF7) cancer cell lines. […] The data is presented in Table 4 as IC50 values (in µM).
(§3) Cells were obtained from American Type Culture Collection. The cell culture DMEM was obtained from Life Technologies and Invitrogen and supplied with 10% FBS from Hyclone, 1% penicillin-streptomycin, and 10 µg/mL insulin from Sigma-Aldrich.
as §1

CDK9 [3] = molecular target: T1, CDK9; assay: In vitro CDK9 kinase assay (BPS Biosciences kit)
Experimental: The in vitro kinase activity was measured using a CDK9 assay kit obtained from BPS Biosciences (San Diego, CA). The inhibitory effect of the tested compounds was assessed following the manufacturer’s instructions as indicated in the kit. GraphPad Prism 5.0 software was used to analyze the results.

HCT116 cancer cells = assay: MTT cytotoxicity assay, HCT116; format: cell-based; details: Homo sapiens, HCT-116, 48 h, means (SD) of three trials
Experimental: as §2, §3, §1

MCF7 cancer cells = assay: MTT cytotoxicity assay, MCF7; format: cell-based; details: Homo sapiens, 48 h, means (SD) of three trials
Experimental: as §2, §3
The MTT assay was used to monitor the in vitro cytotoxicity of our compounds. […] Then, the cells were incubated with 10% v/v reconstituted MTT at 37 °C for 3 h. The multiwell plates were then read using Wallac Victor2 1420 multilabel counter, and the absorbance was measured at a wavelength of 450 (ex) and 590 nm (em).

[4] = Cytotoxicity on target cells in the antiviral assay; details: target cells of the HCoV-229E antiviral assay
[5] = tested on: MCF7, HCT116, and K652 cancer cells; assay: MTT cytotoxicity assay, average of the three cell lines; format: cell-based
Experimental: as §2, §3, §1

[6] = tested on: human Coronavirus (HCoV-229E); assay: 229E inhibitory assay (cytopathic inhibition effect); format: cell-based, human Coronavirus 229E; details: for IC50: read-out: IC50 229E inhibitory effect
Experimental: The antiviral effect of the compounds was examined in a human Coronavirus (HCoV-229E) inhibitory assay. The standard ribavirin (a well-established antiviral agent) was used as a positive control in this experiment.
The cytopathic inhibition effect was used to assess the antiviral and cytotoxicity of the compounds using a method described by Choi et al. (2009). Coronavirus 229E cells were used in this assay. The antiviral activity of the tested compounds was measured as a percentage using a method described by Pauwels et al.’s (1988) research. GraphPad Prism 5.0 software was used to analyze the results. Ribavirin was used as a positive standard in this assay, and DMSO was used as a negative standard.

[7] = MTT assay, normal noncancerous cells
[8] = HCoV-229E, cytopathic effect inhibition

T1 sequence (P50750 whole entry): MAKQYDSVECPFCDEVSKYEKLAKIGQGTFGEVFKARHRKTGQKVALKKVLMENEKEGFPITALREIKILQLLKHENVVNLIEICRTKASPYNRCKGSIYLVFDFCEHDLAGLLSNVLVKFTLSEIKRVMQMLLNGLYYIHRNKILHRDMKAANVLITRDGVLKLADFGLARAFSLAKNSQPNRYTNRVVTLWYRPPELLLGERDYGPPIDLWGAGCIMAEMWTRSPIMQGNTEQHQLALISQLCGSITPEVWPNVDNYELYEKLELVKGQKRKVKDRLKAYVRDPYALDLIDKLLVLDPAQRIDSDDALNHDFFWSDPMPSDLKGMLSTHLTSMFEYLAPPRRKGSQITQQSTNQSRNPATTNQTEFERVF
T1 sequence (O60563 whole entry, further chain): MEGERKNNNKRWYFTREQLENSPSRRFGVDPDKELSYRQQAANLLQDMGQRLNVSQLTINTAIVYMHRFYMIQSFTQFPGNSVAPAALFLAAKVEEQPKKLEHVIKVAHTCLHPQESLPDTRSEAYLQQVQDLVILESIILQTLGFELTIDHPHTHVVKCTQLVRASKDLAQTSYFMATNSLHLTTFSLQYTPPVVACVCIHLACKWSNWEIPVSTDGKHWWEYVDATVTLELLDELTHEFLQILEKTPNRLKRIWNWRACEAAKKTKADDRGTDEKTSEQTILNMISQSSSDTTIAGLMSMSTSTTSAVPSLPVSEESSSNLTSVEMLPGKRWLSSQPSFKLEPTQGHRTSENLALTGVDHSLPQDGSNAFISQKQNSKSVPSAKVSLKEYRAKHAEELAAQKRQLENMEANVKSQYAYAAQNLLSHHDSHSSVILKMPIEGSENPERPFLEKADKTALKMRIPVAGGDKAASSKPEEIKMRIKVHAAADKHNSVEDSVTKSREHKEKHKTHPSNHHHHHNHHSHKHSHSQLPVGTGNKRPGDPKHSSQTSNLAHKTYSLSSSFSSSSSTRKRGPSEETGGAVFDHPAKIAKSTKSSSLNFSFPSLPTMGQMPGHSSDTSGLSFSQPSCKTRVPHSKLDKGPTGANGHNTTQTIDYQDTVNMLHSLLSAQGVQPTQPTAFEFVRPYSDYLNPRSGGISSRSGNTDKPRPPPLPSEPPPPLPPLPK

2-phenylimidazopyrazin-3-amine [Compound 2]
CDK9 IC50 (CDK9 [1]): submicromolar
IC50 (CDK9 [1]): 0.166 µM
Cytotoxicity IC50 (three cancer cell lines): single-digit
IC50 (three cancer cell lines; read-out: Cytotoxicity IC50): 6.66 µM

COc1cc(F)ccc1-c1ncnc(Nc2cccc(C[S@](C)(=N)=O)c2)n1 [Atuveciclib]
IC50 (CDK5): 1.6 µM
IC50 (CDK2): 1 µM
IC50 (CDK7): > 10 µM

COc1cc(F)ccc1-c1cc(Nc2cc(CS(C)(=N)=O)ccn2)ncc1F (stereo not shown) [BAY-1251152]
IC50 (CDK2): 2.92 µM

Oc1ccc(-c2nc3cnccn3c2NCCc2ccccc2)cc1O [Compound 1]
IC50 [2]: 34.8 µM

CC(C)(C)Nc1c(-c2ccoc2)nc2cnccn12 [Compound 1a, N-(Tert-butyl)-2-(furan-3-yl) imidazo[1,2-a] pyrazin-3-amine]
SI (Selectivity Index) HCT116 (FHC normal cells): 2.7
SI (Selectivity Index) K652 (FHC normal cells): 4.3
SI (Selectivity Index) MCF7 (FHC normal cells): 20.5
IC50 (FHC normal cells; [7]): 58.6 ± 0.8 µM
IC50 (K652 cancer cells): 13.4 ± 0.19 µM
IC50 (CDK9 [3]): 0.19 ± 0.003 µM
IC50 (HCT116 cancer cells): 21.6 ± 0.29 µM
IC50 (MCF7 cancer cells): 2.85 ± 0.03 µM
CC50 [4]: 1320 µM
IC50 [5]: 12.6 µM
SI selectivity index (CC50/IC50) ([6]; HCoV-229E): 1.25
IC50 [6, 8]: 1060 µM

c1cn2c(NC3CCCCC3)c(-c3ccoc3)nc2cn1 [Compound 1b, N-Cyclohexyl-2-(furan-3-yl) imidazo[1,2-a] pyrazin-3-amine]
IC50 (K652 cancer cells): 168 ± 5.99 µM
IC50 (CDK9 [3]): 1.78 ± 0.029 µM
IC50 (HCT116 cancer cells): 164 ± 2.1 µM
IC50 (MCF7 cancer cells): 99.2 ± 3.08 µM
IC50 [5]: 144 µM

c1ccc(CNc2c(-c3ccoc3)nc3cnccn23)cc1 [Compound 1c, N-Benzyl-2-(furan-3-yl) imidazo[1,2-a]pyrazin-3-amine]
IC50 (FHC normal cells): 61.7 ± 0.96 µM
IC50 (K652 cancer cells): 24.8 ± 0.61 µM
IC50 (CDK9 [3]): 0.46 ± 0.008 µM
IC50 (HCT116 cancer cells): 16.4 ± 0.69 µM
IC50 (MCF7 cancer cells): 17.4 ± 0.34 µM
CC50 [4]: 653 µM
IC50 [5]: 19.5 µM
IC50 [6]: 516 µM

COc1ccc(Nc2c(-c3ccoc3)nc3cnccn23)cc1 [Compound 1d, 2-(Furan-3-yl)-N-(4-methoxyphenyl) imidazo[1,2-a] pyrazin-3-amine]
IC50 (FHC normal cells; [7]): 187 ± 2.92 µM
IC50 (K652 cancer cells): 11.8 ± 0.19 µM
IC50 (CDK9 [3]): 0.18 ± 0.003 µM
IC50 (HCT116 cancer cells): 10.7 ± 0.16 µM
IC50 (MCF7 cancer cells): 12.3 ± 0.17 µM
CC50 [4]: 846 µM
IC50 [5]: 11.6 µM
SI selectivity index (CC50/IC50) ([6]; HCoV-229E): 1.27
IC50 [6, 8]: 405 µM

CC(C)(C)Nc1c(-c2ccc(O)cc2O)nc2cnccn12 [Compound 2a, 4-(3-(Tert-butylamino)imidazo[1,2-a]pyrazin-2-yl)benzene-1,3-diol]
IC50 (K652 cancer cells): 71.05 ± 0.39 µM
IC50 (CDK9 [3]): 0.45 ± 0.008 µM
IC50 (HCT116 cancer cells): 136.4 ± 0.25 µM
IC50 (MCF7 cancer cells): 48.26 ± 0.24 µM
IC50 [5]: 85.2 µM

Oc1ccc(-c2nc3cnccn3c2NC2CCCCC2)c(O)c1 [Compound 2b, 4-(3-(Cyclohexylamino)imidazo[1,2-a]pyrazin-2-yl)benzene-1,3-diol]
IC50 (K652 cancer cells): 38.8 ± 1.16 µM
IC50 (CDK9 [3]): 0.3 ± 0.006 µM
IC50 (HCT116 cancer cells): 7.61 ± 2.12 µM
IC50 (MCF7 cancer cells): 45.9 ± 0.67 µM
IC50 [5]: 30.8 µM

Oc1ccc(-c2nc3cnccn3c2NCc2ccccc2)c(O)c1 [Compound 2c, 4-(3-(Benzylamino)imidazo[1,2-a]pyrazin-2-yl)benzene-1,3-diol]
IC50 (K652 cancer cells): 50.2 ± 0.69 µM
IC50 (CDK9 [3]): 0.65 ± 0.011 µM
IC50 (HCT116 cancer cells): 56.56 ± 0.13 µM
IC50 (MCF7 cancer cells): 63.5 ± 0.7 µM
IC50 [5]: 56.8 µM

COc1ccc(Nc2c(-c3ccc(O)cc3O)nc3cnccn23)cc1 [Compound 2d, 4-(3-((4-Methoxyphenyl)amino)imidazo[1,2-a]pyrazin-2-yl)benzene-1,3-diol]
IC50 (K652 cancer cells): 25.3 ± 0.91 µM
IC50 (CDK9 [3]): 0.89 ± 0.018 µM
IC50 (HCT116 cancer cells): 104 ± 0.98 µM
IC50 (MCF7 cancer cells): 71.2 ± 0.99 µM
IC50 [5]: 66.8 µM

CN(C)c1ccc(-c2nc3cnccn3c2NC(C)(C)C)cn1 [Compound 3a, N-(Tert-butyl)-2-(6-(dimethylamino)pyridin-3-yl)imidazo[1,2-a]pyrazin-3-amine]
IC50 (K652 cancer cells): 78.2 ± 1.32 µM
IC50 (CDK9 [3]): 0.3 ± 0.005 µM
IC50 (HCT116 cancer cells): 4.13 ± 0.07 µM
IC50 (MCF7 cancer cells): 22.8 ± 0.33 µM
CC50 [4]: 186 µM
IC50 [5]: 35.1 µM
SI selectivity index (CC50/IC50) ([6]; HCoV-229E): 0.48
IC50 [6, 8]: 393 µM

CN(C)c1ccc(-c2nc3cnccn3c2NC2CCCCC2)cn1 [Compound 3b, N-Cyclohexyl-2-(6-(dimethylamino)pyridin-3-yl)imidazo[1,2-a]pyrazin-3-amine]
SI (Selectivity Index) HCT116 (FHC normal cells): 8.7
SI (Selectivity Index) K652 (FHC normal cells): 21.3
SI (Selectivity Index) MCF7 (FHC normal cells): 5.8
IC50 (FHC normal cells; [7]): 95.8 ± 1.72 µM
IC50 (K652 cancer cells): 4.5 ± 0.08 µM
IC50 (CDK9 [3]): 0.23 ± 0.005 µM
IC50 (HCT116 cancer cells): 11 ± 0.19 µM
IC50 (MCF7 cancer cells): 16.4 ± 0.26 µM
CC50 [4]: 213 µM
IC50 [5]: 10.7 µM
SI selectivity index (CC50/IC50) ([6]; HCoV-229E): 0.37
IC50 [6, 8]: 590 µM

CN(C)c1ccc(-c2nc3cnccn3c2NCc2ccccc2)cn1 [Compound 3c, N-Benzyl-2-(6-(dimethylamino)pyridin-3-yl)imidazo[1,2-a]pyrazin-3-amine]
IC50 (K652 cancer cells): 26.4 ± 0.43 µM
IC50 (CDK9 [3]): 0.33 ± 0.007 µM
IC50 (HCT116 cancer cells): 42.2 ± 0.68 µM
IC50 (MCF7 cancer cells): 9.52 ± 0.15 µM
IC50 [5]: 26 µM

COc1ccc(Nc2c(-c3ccc(N(C)C)nc3)nc3cnccn23)cc1 [Compound 3d, 2-(6-(Dimethylamino)pyridin-3-yl)-N-(4-methoxyphenyl) imidazo[1,2-a]pyrazin-3-amine]
IC50 (K652 cancer cells): 153 ± 2.99 µM
IC50 (CDK9 [3]): 1.66 ± 0.034 µM
IC50 (HCT116 cancer cells): 147 ± 2.75 µM
IC50 (MCF7 cancer cells): 120 ± 2.02 µM
IC50 [5]: 140 µM

CC(C)(C)Nc1c(-c2ccnc(F)c2)nc2cnccn12 [Compound 4a, N-(Tert-butyl)-2-(2-fluoropyridin-4-yl) imidazo[1,2-a] pyrazin-3-amine]
IC50 (K652 cancer cells): 19.6 ± 0.26 µM
IC50 (CDK9 [3]): 0.24 ± 0.004 µM
IC50 (HCT116 cancer cells): 38.2 ± 0.51 µM
IC50 (MCF7 cancer cells): 4.38 ± 0.06 µM
CC50 [4]: 303 µM
IC50 [5]: 20.7 µM
SI selectivity index (CC50/IC50) ([6]; HCoV-229E): 4.8
IC50 [6, 8]: 63.3 µM

Fc1cc(-c2nc3cnccn3c2NC2CCCCC2)ccn1 [Compound 4b, N-Cyclohexyl-2-(2-fluoropyridin-4-yl) imidazo[1,2-a] pyrazin-3-amine]
SI (Selectivity Index) HCT116 (FHC normal cells): 4.8
SI (Selectivity Index) K652 (FHC normal cells): 3.2
SI (Selectivity Index) MCF7 (FHC normal cells): 4.5
IC50 (FHC normal cells; [7]): 74.3 ± 1.26 µM
IC50 (K652 cancer cells): 23.2 ± 0.81 µM
IC50 (CDK9 [3]): 1.22 ± 0.011 µM
IC50 (HCT116 cancer cells): 15.28 ± 0.13 µM
IC50 (MCF7 cancer cells): 16.2 ± 0.41 µM
CC50 [4]: 174 µM
IC50 [5]: 18.2 µM
SI selectivity index (CC50/IC50) ([6]; HCoV-229E): 0.29
IC50 [6, 8]: 618 µM

Fc1cc(-c2nc3cnccn3c2NCc2ccccc2)ccn1 [Compound 4c, N-Benzyl-2-(2-fluoropyridin-4-yl) imidazo[1,2-a] pyrazin-3-amine]
IC50 (K652 cancer cells): 114 ± 1.7 µM
IC50 (CDK9 [3]): 1.11 ± 0.02 µM
IC50 (HCT116 cancer cells): 97.4 ± 1.46 µM
IC50 (MCF7 cancer cells): 67.3 ± 1.01 µM
CC50 [4]: 271 µM
IC50 [5]: 92.8 µM
SI selectivity index (CC50/IC50) ([6]; HCoV-229E): 0.9
IC50 [6, 8]: 331 µM

COc1ccc(Nc2c(-c3ccnc(F)c3)nc3cnccn23)cc1 [Compound 4d, 2-(2-Fluoropyridin-4-yl)-N-(4-methoxyphenyl) imidazo[1,2-a]pyrazin-3-amine]
IC50 (K652 cancer cells): 47.11 ± 0.26 µM
IC50 (CDK9 [3]): 0.57 ± 0.011 µM
IC50 (HCT116 cancer cells): 10.2 ± 0.16 µM
IC50 (MCF7 cancer cells): 25.1 ± 0.39 µM
IC50 [5]: 27.5 µM

NC(=O)c1ncn([C@@H]2O[C@H](CO)[C@@H](O)[C@H]2O)n1 [Ribavirin, reference compound]
CC50 [4]: 160 µM
SI selectivity index (CC50/IC50) ([6]; HCoV-229E): 1.4
IC50 [6, 8]: 114 µM

CN[C@@H]1C[C@H]2O[C@@](C)([C@@H]1OC)n1c3ccccc3c3c4c(c5c6ccccc6n2c5c31)C(=O)NC4 [Staurosporine, reference compound]
IC50 (MCF7 cancer cells): 18.4 ± 0.4 µM
